The results in this text go back to PubChem BioAssay AID687005 (Broad Institute, 2013).

SMILES strings stand for the structures. Inconclusive results are not listed. Activity calls are given as the source filed them.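 Rule for the calls: active = Compounds that reduce signal, with fitted half-maximal dose at or under twice the top valid tested dose; inconclusive = Poor fit, or flat curve losing 30 to 70% of signal; inactive = Potency past limit, flat within 30%, or opposite direction.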

The nature of one assay: viability loss in HEK293T cells – cell-based, ATP luminescence, cherry-pick samples, cytotoxicity control, dose response (AID 687005). The settings on record: HEK293T viability, ATP luminescence (CellTiter-Glo), 48 h; at 23.5 µM (top of the series).
As to `COc1cccc(S(=O)(=O)Nc2ccc3c(c2)[C@H]2C[C@H](CC(=O)NCc4cccc(F)c4)O[C@@H](CO)[C@H]2O3)c1`, the activity change, negative = cytotoxicity was -22.3% (inactive).

In the case of `O=C(NC[C@@H]1[C@@H](c2ccccc2)[C@H](CO)N1C(=O)C1CCC1)NC1CCCC1`, the activity change, negative = cytotoxicity was -9.04% (inactive).

On to `CN1C(=O)c2cc(NS(C)(=O)=O)ccc2OC[C@@H]2O[C@@H](CC(=O)O)CC[C@@H]21`, for which the activity change, negative = cytotoxicity was -2.71% (inactive).

Regarding `C[C@@H]1CN([C@H](C)CO)C(=O)c2cc(NC(=O)CCC(F)(F)F)ccc2O[C@@H](C)CCCCO[C@@H]1CN(C)C(=O)c1ccncc1`, the activity change, negative = cytotoxicity was -15.4% (inactive).

Consider `C[C@H](CO)N1C[C@H](C)[C@H](CN(C)C(=O)Nc2ccc3c(c2)OCO3)Oc2ncc(C#CC(C)(C)O)cc2C1=O`, for which the activity change, negative = cytotoxicity is -10.7% (inactive).

As for `O=C(C[C@H]1C[C@H]2c3cc(NC(=O)C4CCC4)ccc3O[C@H]2[C@@H](CO)O1)NCc1cccc(F)c1`, the activity change, negative = cytotoxicity was -5.36% (inactive).

Regarding `C/C=C/c1ccc([C@H]2[C@@H](C#N)N(S(=O)(=O)c3cccc(F)c3)[C@H]2CO)cc1`, the activity change, negative = cytotoxicity is 7.73% (inactive).

As to `CNC(=O)C[C@H]1CC[C@H]2[C@H](COc3ccc(NC(=O)c4cc(C)on4)cc3C(=O)N2C)O1`, the activity change, negative = cytotoxicity was -23.4% (inactive).

For the molecule `CCCNC(=O)C[C@@H]1CC[C@@H]2[C@@H](COc3ccc(NC(=O)CCC)cc3C(=O)N2C)O1`, the activity change, negative = cytotoxicity was 9.04% (inactive).

The same assay, now with this note: HEK293T viability, ATP luminescence (CellTiter-Glo), 48 h; at 26 µM (top of the series).
On to `CC(=O)N1[C@H](CO)[C@H](c2ccc(-c3ccccc3)cc2)[C@H]1CNC(=O)C1CC1`, for which the activity change, negative = cytotoxicity is -33.3% (inactive).

As to `O=c1nc(-c2ccccc2)c2ccccc2[nH]1`, the activity change, negative = cytotoxicity is 1.46% (inactive).

For `COc1ccc(NC(=O)N(C)C[C@H]2OCCCC[C@H](C)Oc3ccc(NC(=O)C4CCCCC4)cc3C(=O)N([C@@H](C)CO)C[C@@H]2C)cc1`, the activity change, negative = cytotoxicity is -27.2% (inactive).

Take `Cc1ccc(S(=O)(=O)N[C@@H]2CC[C@H](CCNC(=O)C3CCCC3)O[C@@H]2CO)cc1`: the activity change, negative = cytotoxicity was -17.8% (inactive).

As to `CCCN(C)C[C@H]1OCCCC[C@@H](C)Oc2ccc(NC(=O)NC(C)C)cc2C(=O)N([C@@H](C)CO)C[C@H]1C`, the activity change, negative = cytotoxicity was -9.71% (inactive).

In the case of `CN1C(=O)c2cc(NC(=O)Nc3ccc(Cl)cc3)ccc2OC[C@H]2O[C@@H](CC(=O)NCCN3CCCCC3)CC[C@@H]21`, the activity change, negative = cytotoxicity was 36.5% (inactive).

As to `CO[C@@H]1CN(C)C(=O)c2ccc(NC(=O)NC(C)C)cc2OC[C@H](C)NC[C@@H]1C`, the activity change, negative = cytotoxicity was -4.93% (inactive).

With `CCC(C(=O)Nc1c(C)cc(C)cc1C)N1CCCCCC1` (configuration not stated), the activity change, negative = cytotoxicity was 18.8% (inactive).

On to `C[C@H](CO)N1C[C@H](C)[C@@H](CN(C)C(=O)C2CCOCC2)Oc2ncc(C#CCc3ccccc3)cc2C1=O`, for which the activity change, negative = cytotoxicity is 6.08% (inactive).

Consider `COc1ccc(N(CC(=O)NCCSCc2ccc(C)cc2)S(=O)(=O)c2ccccc2)cc1`, for which the activity change, negative = cytotoxicity was -65.3% (inactive).

Consider `O=C(Nc1ccccc1)N[C@@H]1CC[C@@H](CCNC(=O)c2ccccc2F)O[C@H]1CO`, for which the activity change, negative = cytotoxicity was -29.3% (inactive).

On to `O=C(COc1ccc2c(c1)CCC2)NCc1ccccc1`, for which the activity change, negative = cytotoxicity is 1.59% (inactive).

With `COCC(=O)N(C)C[C@@H]1Oc2ncc(C#CCC3CCCC3)cc2C(=O)N([C@@H](C)CO)C[C@H]1C`, the activity change, negative = cytotoxicity is 1.81% (inactive).

In the case of `CC(C)NC(=O)N[C@H]1CC[C@@H](CCNC(=O)C2CC2)O[C@H]1CO`, the activity change, negative = cytotoxicity was 6.21% (inactive).

For `CC=Cc1ccc2n(c1=O)C[C@@H]1[C@@H](CO)[C@H](C(=O)N3CCc4ccccc4C3)N(C(=O)C3CC3)[C@H]21` (mixture of isomers), the activity change, negative = cytotoxicity was -3.28% (inactive).

With `C[C@@H]1CN([C@@H](C)CO)C(=O)c2cc(NS(=O)(=O)c3cn(C)cn3)ccc2O[C@@H](C)CCCCO[C@H]1CN(C)C`, the activity change, negative = cytotoxicity is -1.98% (inactive).

As for `CCC(=O)N1[C@H](CN(C)C(C)=O)[C@@H](c2ccc(C3=CCCCC3)cc2)[C@@H]1CO`, the activity change, negative = cytotoxicity is -18.9% (inactive).

Turning to `C[C@@H]1CN([C@@H](C)CO)C(=O)c2cc(NC(=O)Nc3ccccc3)ccc2O[C@@H]1CN(C)C(=O)Nc1cccc2ccccc12`, the activity change, negative = cytotoxicity is 203% (inactive).

Regarding `Cc1cccc(NC(=O)CN(C)C(=O)C2CCCC2)c1C`, the activity change, negative = cytotoxicity is -33.5% (inactive).

Consider `O=C(NCCc1ccccc1)[C@H]1[C@H](CO)[C@H]2Cn3c(cccc3=O)[C@@H]1N2C(=O)C1CCC1`, for which the activity change, negative = cytotoxicity was 7.71% (inactive).

In the case of `CCC(=O)N(C)C[C@@H]1Oc2cc(C#CC(C)(C)O)ccc2S(=O)(=O)N([C@@H](C)CO)C[C@H]1C`, the activity change, negative = cytotoxicity was -26.1% (inactive).

`CCC(=O)N[C@H]1C=C[C@@H](CC(=O)OC)O[C@@H]1CO`: the activity change, negative = cytotoxicity was -29.7% (inactive).

`C[C@@H]1CN([C@@H](C)CO)C(=O)c2cc(C3=CCCCC3)cnc2O[C@H]1CN(C)C(=O)Cc1cccnc1`: the activity change, negative = cytotoxicity is -18.3% (inactive).

`Cc1ccccc1S(=O)(=O)N[C@H]1CC[C@H](CCNS(=O)(=O)c2cccc(F)c2)O[C@H]1CO`: the activity change, negative = cytotoxicity was -6.73% (inactive).

As to `CCC(=O)N1[C@H](CO)[C@H](c2ccc(-c3ccc(F)cc3)cc2)[C@@H]1CNC(C)=O`, the activity change, negative = cytotoxicity is -42.1% (inactive).

For `C[C@@H]1CN([C@H](C)CO)C(=O)c2cccc(NC(=O)C3CC3)c2O[C@H]1CN(C)Cc1ccc(C(=O)O)cc1`, the activity change, negative = cytotoxicity was -12.7% (inactive).

Regarding `COc1ccc(OC(C)C(=O)NC(C)c2ccccc2)cc1` (configuration not stated), the activity change, negative = cytotoxicity is -8.71% (inactive).

With `S=C(Nc1ccccc1)Nc1cc(Cl)ccc1Oc1ccccc1`, the activity change, negative = cytotoxicity was -0.976% (inactive).

For `C[C@H]1CN([C@@H](C)CO)C(=O)Cc2cc(NS(=O)(=O)c3ccc(F)cc3)ccc2O[C@H]1CN(C)S(=O)(=O)c1ccc(F)cc1`, the activity change, negative = cytotoxicity was 6.2% (inactive).

As for `C[C@H](CO)N1C[C@H](C)[C@@H](CN(C)Cc2ccncc2)Oc2ccc(NC(=O)CCC(F)(F)F)cc2C1=O`, the activity change, negative = cytotoxicity was -2.07% (inactive).

For the molecule `O=C(CSc1ncnc2c1cnn2-c1ccc(F)cc1)NC1CCCC1`, the activity change, negative = cytotoxicity is -30.5% (inactive).

As to `C/C=C/c1ccc([C@@H]2[C@@H](CNC(=O)c3ccccc3)N(C(C)=O)[C@H]2CO)cc1`, the activity change, negative = cytotoxicity was 13.1% (inactive).

For the molecule `COc1cc2c(C(=O)N(C)c3cc(Cl)ccc3OC)cn(C)c(=O)c2cc1OC`, the activity change, negative = cytotoxicity is -3.77% (inactive).

Take `Cc1cc(C)cc(OCC(=O)NC(C)c2ccccc2)c1` (configuration not stated): the activity change, negative = cytotoxicity is 14.9% (inactive).

On to `COc1ccc(CN(C)C[C@@H]2OCCCC[C@H](C)Oc3ccc(N(C)C)cc3C(=O)N([C@H](C)CO)C[C@@H]2C)cc1`, for which the activity change, negative = cytotoxicity is 12.7% (inactive).

With `O=C(CN1CCOCC1)N1CC[C@@H]2[C@@H](CO)Nc3ccc(-c4ccccc4F)cc3[C@@H]21`, the activity change, negative = cytotoxicity was 29% (inactive).

As to `O=C(C1CCOCC1)N1C[C@H]2[C@@H](c3ccccc31)[C@@H](CO)N2Cc1ccccc1Cl`, the activity change, negative = cytotoxicity is 3.34% (inactive).

As for `COc1ccccc1C(=O)Nc1ccc2c(c1)OC[C@H](C)N(C(C)=O)C[C@H](C)[C@H](OC)CN(C)C2=O`, the activity change, negative = cytotoxicity is -41.7% (inactive).

`C[C@H]1CN([C@@H](C)CO)C(=O)c2cccc(NS(C)(=O)=O)c2O[C@@H]1CN(C)Cc1ccc(-c2ccccc2)cc1`: the activity change, negative = cytotoxicity was -8.66% (inactive).

Regarding `COc1ccc(C#Cc2ccc3c(c2)O[C@H](CN(C)C(C)=O)[C@@H](C)CN([C@@H](C)CO)S3(=O)=O)cc1`, the activity change, negative = cytotoxicity is -74% (inactive).

On to `CCCC(=O)Nc1ccc2c(c1)C(=O)N(C)C[C@H](OC)[C@@H](C)CN(C(=O)c1cccnc1)[C@@H](C)CO2`, for which the activity change, negative = cytotoxicity was 4.75% (inactive).

Turning to `O=C(C[C@H]1CC[C@H]2[C@@H](COC[C@H](O)CN2Cc2cc(F)cc(F)c2)O1)Nc1nccs1`, the activity change, negative = cytotoxicity was 0.29% (inactive).

For the molecule `C[C@H](CO)N1C[C@H](C)[C@H](CN(C)S(=O)(=O)c2cn(C)cn2)Oc2ncc(/C=C/c3ccccc3)cc2C1=O`, the activity change, negative = cytotoxicity is 5.3% (inactive).

With `C[C@H]1CN([C@@H](C)CO)C(=O)Cc2cc(N(C)C)ccc2O[C@@H]1CN(C)C(=O)Nc1ccc(C(F)(F)F)cc1`, the activity change, negative = cytotoxicity was -28.9% (inactive).

`O=C(N[C@H]1CC[C@H](CCn2cc(-c3ccccn3)nn2)O[C@H]1CO)c1ccc(F)cc1`: the activity change, negative = cytotoxicity is -9.35% (inactive).

In the case of `Cc1cccc(C)c1NC(=O)C(CCc1ccccc1)N1CCC(c2ccccc2)CC1` (configuration not stated), the activity change, negative = cytotoxicity is -63.1% (inactive).

Take `C[C@@H]1CN([C@H](C)CO)C(=O)c2cc(C#CC(C)(C)O)cnc2O[C@@H]1CN(C)Cc1cncnc1`: the activity change, negative = cytotoxicity is 35.1% (inactive).

Take `O=C(COC(=O)CCC1CCCC1)Nc1nc2c(F)c(F)c(F)cc2s1`: the activity change, negative = cytotoxicity is -8.53% (inactive).

In the case of `O=C(CSc1ncnc2c1cnn2-c1ccccc1)Nc1ccc2c(c1)OCO2`, the activity change, negative = cytotoxicity is 2.1% (inactive).

Consider `CC(=O)c1ccc(OCC(=O)NCc2ccc(F)cc2)cc1`, for which the activity change, negative = cytotoxicity was 11% (inactive).

Regarding `C[C@H]1CN([C@@H](C)CO)C(=O)Cc2cc(NS(C)(=O)=O)ccc2O[C@@H]1CN(C)Cc1ccc(Cl)c(Cl)c1`, the activity change, negative = cytotoxicity is 11.7% (inactive).

On to `COc1ccccc1CNC(=S)NCc1ccc(Cl)cc1`, for which the activity change, negative = cytotoxicity is 13.5% (inactive).

Staying with this assay, now noted: HEK293T viability, ATP luminescence (CellTiter-Glo), 48 h; at 35 µM (top of the series).
Consider `Cc1ccc(NC(=O)C2(C)CCN2C(=O)CCC2CCCC2)cc1C` (configuration not stated), for which the activity change, negative = cytotoxicity is -23.2% (inactive).
